One assay concerns HMGA2. Kind of assay: In-cell western analysis of HMGA2 expression in 3T3-L1 cells. In kind it is cell-based, mouse. The following applies: normalized to TO-PRO-3, FIGS. 17F and G. The protocol:
Specific protein levels were analyzed using in-cell western technology (Egorina, E. M., et al (2006)). During differentiation and drug administration, 3T3-L1 cells were fixed in 4% paraformaldehyde in PBS for 25 min at room temperature. Pre-adipocytes were quenched by washing the cells in 100 mM glycine for 5 min at room temperature. The cells were permeabilized by incubating the cells in 0.2% Triton X-100 in PBS for 30 min at room temperature. The cells were then blocked using LICOR Odyssey Blocking Buffer (LI-COR Biosciences, 927-40100) for 1 h at room temperature. Cells were then incubated with a primary antibody for HMGA2 (Cell Signaling Technologies #5269) at a 1:500 dilution in LI-COR Odyssey Blocking Buffer supplemented with 0.1% Tween-20 for 2.5 h at room temperature. The cells were washed in 0.1% Tween in PBS. Secondary antibodies (IRDye 800CW anti-rabbit, LI-COR Biosciences, 926-32211) were incubated at a dilution of 1:1000 in LI-COR Blocking Buffer supplemented with 0.1% Tween-20 for 1 h. Concurrent to the addition of secondary antibody TO-PRO-3 (Invitrogen) was added at a 1:1000 dilution as a normalization control for cell number and incubated for 1 h. The cells were washed again in 0.1% Tween-20 in PBS. Plates were then scanned on the LICOR Biosciences Odyssey CLx Infrared Imaging System and quantified using the LI-COR in-cell western analysis in Image Studio.

In the next assay the test system is HMGA2-FL814 interaction. Kind of assay: PDI-ELISA for HMGA2 binding to DNA oligomer FL814. On the set-up: species or system mammalian. The settings on record: for OD450 of the PDI-ELISA in the presence of the compound: 100 nM compound, 100 nM FL814, 1 μM HMGA2, 2×SSCT, OD450 without drug 1.44; for inhibition of HMGA2-FL814 interactions: compound at 100 nM in 2×SSCT, FIG. 12 / Table 1; for IC50: netropsin titration. On the technique in general: ELISA stands for enzyme-linked immunosorbent assay.

The next assay deals with 3T3-L1 cells. As to the kind of experiment: Oil Red O staining of differentiated 3T3-L1 cells (adipogenesis). In kind it is cell-based, mouse. Here is the method:
Mouse pre-adipocytes (3T3-L1 cells) were a gracious gift from Dr Jun Liu at Mayo Clinic. 3T3-L1 cells were maintained in DMEM supplemented with 10% FBS, 100 U/ml penicillin, 100 μg/ml streptomycin and 5 μg/ml plasmocin. The cells were grown under normal culture conditions of 5% CO2 and humidity. Cells were maintained for a minimum of three passages in linear growth prior to differentiation. To differentiate the 3T3-L1 pre-adipocytes into adipocytes, we used the protocol previously described by Zebisch et al. (Zebisch, K., et al. (2012)). Briefly, 3T3-L1 pre-adipocytes were sub-cultured in DMEM supplemented with 5% newborn calf serum, 100 U/ml penicillin, 100 μg/ml streptomycin and 5 μg/ml plasmocin (Basal Media 1—BM1). The cells were then plated at 6×10^5 cells per dish in 35-mm dishes, 3×10^5 cells per well in a 12-well plate, 1.5×10^5 cells in a 24-well plate or 3.0×10^4 cells per well in a 96-well plate. The cells were grown to confluency with BM1 replacement every other day. Following 48 h of confluency, 3T3-L1 cells were treated with Differentiation medium 1 (DM1), which is BM1 supplemented with […] iso-butyl-methylxanthine, 0.25 μM dexamethasone, 1 μg/ml insulin and 2 μg/ml rosiglitazone. After 48 h, the medium was replaced with differentiation medium 2 (DM2); this is BM1 supplemented with 1 μg/ml insulin. On the seventh day, the cells were placed in DMEM with FBS. The cells were cultured to the date indicated in the experiments below with media changes every other day. The presence of adipogenesis was confirmed by microscopic detection of adipose bodies in the cells. For our experiments, only cultures with >80% differentiation were used.
Following differentiation and drug treatment, Oil Red O staining was used to qualitatively and quantitatively assess the level of neutral lipids in the differentiated cells. For qualitative assessment by phase microscopy, cells were washed twice in PBS and then fixed with 10% formalin for 30 min at room temperature. Oil Red O was reconstituted at 300 mg per 100 ml of isopropanol. The Oil Red O solution was prepared for staining by adding 20 ml of deionized water to 30 ml of the Oil Red O stock solution and filtered. The cells were then incubated for 5 min in 60% isopropanol. The Oil Red O working solution was then added to cells for 5 min. The monolyers were then rinsed clean with deionized water. The cells were then visualized using phase microscopy on the EVOS XL Core microscope. For quantitative assessment of adipogenesis in 96-well formats, cells were lysed in dimethylsulfoxide (DMSO) following the water wash of Oil Red O stained cells. The DMSO released the intracellular Oil Red O into the solution. The absorbance (492 nm) was measured using the BioTek Synergy H1 plate reader.

The target in the next assay is T1, HMGA2-FL814 complex (Mus musculus, UniProt P52927).
T1 sequence (P52927 2-108 limits assumed): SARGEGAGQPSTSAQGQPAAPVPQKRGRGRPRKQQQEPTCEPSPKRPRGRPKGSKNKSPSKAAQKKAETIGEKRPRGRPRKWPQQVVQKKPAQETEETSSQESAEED
As to the kind of experiment: Competition dialysis assay, HMGA2-FL814 complex. The following applies: 3 μM complex dialyzed against 0.73 μM TMPyP4, 72 h, 2×SSCT.

Another assay concerns FL814. As to the kind of experiment: Competition dialysis assay, free FL814. In kind it is binding.

“Also recorded” adds a separate entry of the source. Structures can show the parent of a compound that is named as a salt. Where two headings read alike, the source gives them in different places.

Description for HMGA2-FL814 complex: The competition dialysis assays were carried out according to previously published procedures (Ren, J. and Chaires, J. B. (1999)). Briefly, a volume of 0.3 ml of FL814 (3 μM) or the HMGA2-FL814 complex (3 μM) was pipeted into a separate 0.3 ml disposable dialyzer. The dialysis units were then placed into a beaker with 200 ml of 2×SSCT containing 0.73 μM of TMPyP4. The dialysis was allowed to equilibrate with continuous stirring of 72 h at room temperature (24° C.). After the dialysis, the free, bound and total concentrations of TMPyP4 were determined spectrophotometrically.

Turning to `Cn1cc(NC(=O)c2cc(NC(=O)CN=C(N)N)cn2C)cc1C(=O)NCCC(=N)N` [Netropsin, netropsin dihydrochloride], the “HMGA2 expression in fully differentiated 3T3-L1 cells in the presence of the compound” value with HMGA2 is “expressed”. In the assay with HMGA2-FL814 interaction, the “OD450 of the PDI-ELISA in the presence of the compound” value is on record as 0.152. For the same compound, the “inhibition of HMGA2-DNA interactions (OD450 back to background)” value in the assay on HMGA2-FL814 interaction (500 nM or 1 μM netropsin, FIG. 10A, dihydrochloride) is on record as “complete inhibition; also recorded: completely inhibited”. In addition, the “inhibition of HMGA2-FL814 interactions” value is listed as “completely inhibit” in the assay with HMGA2-FL814 interaction (dihydrochloride) and “potently inhibit” in the assay with HMGA2-FL814 interaction (listed as netropsin, dihydrochloride). Further, the IC50 on HMGA2-FL814 interaction (FIG. 10B, 0.5 μM HMGA2, read-out: inhibitory IC50 of HMGA2 binding to FL814) was around 10 nM; at HMGA2-FL814 interaction (FIG. 11B, three titration experiments, read-out: apparent inhibitory IC50 of HMGA2 binding to FL814) it was 9.3 ± 0.78 nM; in the assay on 3T3-L1 cells (Mus musculus, 3T3-L1, Oil Red O absorbance 492 nm, read-out: inhibition IC50 of neutral lipids in the differentiated cells), 7900 ± 1100 nM. The “inhibition of differentiation of 3T3-L1 cells to adipocytes” value in the assay with 3T3-L1 cells (FIGS. 17A-17G) is “strongly inhibited”. Besides, the inhibition at 10 µM with 3T3-L1 cells (Mus musculus, 10 μM, Oil red O staining, differentiated 3T3-L1 cells, read-out: inhibition of neutral lipid production) was above 50%.

Regarding `C[n+]1ccc(-c2c3nc(c(-c4cc[n+](C)cc4)c4ccc([nH]4)c(-c4cc[n+](C)cc4)c4nc(c(-c5cc[n+](C)cc5)c5ccc2[nH]5)C=C4)C=C3)cc1` [TMPyP4], at HMGA2-FL814 complex, the “binding to the FL814-HMGA2 complex” value was “tightly”. Moreover, the “binding to FL814” value in the assay with FL814 (3 μM FL814 dialyzed against 0.73 μM TMPyP4, 72 h, 2×SSCT) was “tightly”. In the assay with FL814 (competition dialysis, 0.73 μM TMPyP4), the “binding stoichiometry to FL814” value is recorded as “two molecules of TMPyP4 bind to one molecule of FL814”. For the same compound, the “enhancement of HMGA2 binding to double stranded oligomer (FL842/FL843) without loop” value with HMGA2-FL814 interaction (100 nM annealing product of FL842 and FL843, 1 μM HMGA2, FIG. 15B) is recorded as “able to enhance the binding; also recorded: enhancement”. Moreover, in the assay with HMGA2-FL814 interaction, the “OD450 of the PDI-ELISA in the presence of the compound” value is on record as “Very high”. In addition, the “enhancement of HMGA2 binding to FL814 (OD450)” value with HMGA2-FL814 interaction (titration, 100 nM FL814, 1 μM HMGA2, FIG. 14) is recorded as “dramatically enhance; also recorded: significantly enhanced”.

What is called IC50 is the concentration that inhibits the measured activity by half. A word on the inhibition: it is how much of the control response was suppressed.

(Values after patent US20150253323A1, “METHODS AND KITS FOR HIGH THROUGHPUT SCREENING FOR COMPOUNDS TARGETING DNA-BINDING AND RNA-BINDING PROTEINS” (The Florida International University Board of Trustees, priority 2014, published 2015).)
